# From patent US8012486B2, “Composition for treating atopic dermatitis comprising hirsutenone as an active ingredient” (Chung-Ang University Industry Academic Cooperation …, priority 2009, dated 2011)
# Key:
# Type in all cases: in vivo, mouse
# [1] = system: mice in which atopic dermatitis had been induced; experiment: Naked-eye observation of atopic dermatitis in animal model
# Description: To examine treatment efficacy of hirsutenone on atopic dermatitis, the present inventors utilized an experimental animal model in which atopic dermatitis was induced by attachment of mite patch to the skin. Briefly, the patch containing a mite-derived ingredient as a human atopic dermatitis-inducing agent was applied to 5-old-week mice. The hairs of their back were partially removed and mite patch was attached. At 2-week post-application, skin damage equivalent to atopic dermatitis was observed. Mite patch was detached at 18 weeks.
# In addition to NC/Nga mouse, BABL/c mouse was used as an animal model.
# To examine treatment efficacy of hirsutenone on atopic dermatitis, mice in which atopic dermatitis had been induced were treated with hirsutenone through an injection or skin application for 4 weeks. Then, external skin morphology was estimated by naked-eye observation so as to determine whether a symptom of atopic dermatitis was relieved. Each group injected or applied with hirsutenone was compared to a negative control group into which hirsutenone was not administered, resulting in the improvement of a symptom of atopic dermatitis. […] FIG. 5d represents a positive control treated with dexamethasone. […] FIG. 5g represents the result of administration of plancol as positive control.
# FIG. 6d represents a positive control treated with dexamethasone. […] FIG. 6g represents the result of administration of plancol as positive control.
# eosinophil = experiment: Eosinophil count in blood; details: NC/Nga mice, injection or skin application for 4 weeks, after vs before administration
# Description: Mouse blood was collected into capillary tube and 30 μl of mouse whole blood was diluted 6-fold by addition of 150 μl saline. Eosinophils were counted using a Sysmex XE-2100 hematology analyzer. Slide glass smeared with peripheral blood was prepared and stained with Wright-Giemsa. Eosinophil count was carried out by differentially counting 200 leukocytes.
# NC/Nga mice in which atopic dermatitis had been induced were treated with hirsutenone through an injection or skin application for 4 weeks. Blood was collected from mice before and after administration or application of hirsutenone, and then eosinophil count was measured.
# IgE = experiment: Measurement of IgE level by ELISA; details: NC/Nga mice, injection or skin application for 4 weeks, vs negative control
# Description: (§1) Serum was prepared from blood of main artery. Lymphocytes extracted from spleen were cultured. Briefly, extracted spleen was homogenized, filtered through mesh and single cells was isolated. Red blood cells were lysed in RBC lysis buffer and the supernatant was removed by centrifugation. 1×10^6 cells were cultured in 24-well plate containing RPMI media (1 ml). The experiments were performed in media containing cells cultured for 3 days.
# NC/Nga mice in which atopic dermatitis had been induced were treated with hirsutenone through an injection or skin application for 4 weeks. Blood was collected from mice and IgE expression level was measured using ELISA.
# IL-4 = experiment: Measurement of IL-4 expression level by ELISA; details: NC/Nga mice, injection or skin application for 4 weeks, serum and splenocyte, vs negative control
# Description: as §1
# (§2) NC/Nga mice in which atopic dermatitis had been induced were treated with hirsutenone through an injection or skin application for 4 weeks. Blood and spleen were collected from mice and interleukin (IL)-4, IL-5, IL-10 and IL-13 expression level in serum and splenocyte were measured using ELISA. IL-4, IL-5 and IL-13 expression detected in groups of hirsutenone being injected or skin applied was much lower than those of negative control (FIG. 9a, FIG. 9b and FIG. 9c).
# IL-5 = experiment: Measurement of IL-5 expression level by ELISA; details: NC/Nga mice, injection or skin application for 4 weeks, serum and splenocyte, vs negative control
# Description: as §1, §2
# IL-13 = experiment: Measurement of IL-13 expression level by ELISA; details: NC/Nga mice, injection or skin application for 4 weeks, serum and splenocyte, vs negative control
# Description: as §1, §2
# COX-2 [2] = experiment: Measurement of COX-2 expression using real-time PCR; details: NC/Nga mice, injection or skin application for 4 weeks, epidermal cells
# Description: (§3) The primers used in Real-time PCR are as follows.
# (§4) Total RNA was extracted according to the following steps. Tissue was treated with 1 ml TRIZol reagent and mixed with 200 μl chloroform. After centrifugation at 12,000 rpm for 15 min at 4° C., the supernatant was transferred into a new tube and mixed with ½ vol. of isopropanol. The mixture was again centrifuged at 12,000 rpm for 15 min at 4° C. The supernatant was discarded and total RNA was dissolved in DEPC-water.
# (§5) cDNA was prepared according to the following steps. The isolated total RNA was dissolved in 30 μl DEPC-DW and reverse transcription using 3 μg of total RNA as a template was performed in a reaction mixture (20 μl) containing 1 μl of reverse transcriptase, 2 μl of 10× buffer, 2 μl of 10 mM dNTP (dNTP mix), 1 μl of oligo dT primer, 0.5 μl of RNase inhibitor and 4 μl of 25 mM MgCl2.
# (§6) Each 2 μl of cDNA prepared was amplified using PCR. PCR reaction was performed by 45 cycles of 1 min at 59° C. and 1 min at 94° C. Finally, the mixtures were incubated at 72° C. for 1 min for extension.
# (§7) NC/Nga mice in which atopic dermatitis had been induced were treated with hirsutenone through an injection or skin application for 4 weeks and then mice epidermal cells were collected. To investigate whether hirsutenone has a regulatory activity on immune responses, the expression levels of COX-2 and iNOS were detected using real-time PCR. […]
# iNOS [3] = experiment: Measurement of iNOS expression using real-time PCR; details: NC/Nga mice, injection or skin application for 4 weeks, epidermal cells
# Description: as §3, §4, §5, §6, §7
# COX-2 [4] = experiment: Measurement of COX-2 expression level using western blotting; details: NC/Nga mice, injection or skin application for 4 weeks, epidermal cells
# Description: (§8) Skin tissue containing epidermal cells was lysed and centrifuged using a centrifuge. The supernatant was electrophoresized on 15% SDS-PAGE (sodium dodecyl sulfate polyacrylamide gel electrophoresis). For analysis of COX-2 and iNOS, proteins separated on gel electrophoresis were transferred into a nitrocellulose membrane and sequentially incubated with a primary antibody (1:1000 in BSA, rabbit polyclonal anti-COX-2 antibody, rabbit polyclonal iNOS antibody; Chemicon, Calif., USA) and a secondary antibody (1:2000 in BSA, anti-goat IgG, anti-rabbit IgG; Chemicon, Calif., USA).
# (§9) NC/Nga mice in which atopic dermatitis had been induced were treated with hirsutenone through an injection or skin application for 4 weeks and mice epidermal cells were collected. To investigate whether hirsutenone has a regulatory activity on immune responses, the expression levels of COX-2 and iNOS were detected using western blotting.
# iNOS [5] = experiment: Measurement of iNOS expression level using western blotting; details: NC/Nga mice, injection or skin application for 4 weeks, epidermal cells
# Description: as §8, §9
compound,measurement,setting,value
O=C(/C=C/CCc1ccc(O)c(O)c1)CCc1ccc(O)c(O)c1 [hirsutenone],symptom of atopic dermatitis (naked-eye observation),"[1]; BABL/c mice, 0.1% hirsutenone by injection, vs PBS negative control",much more relieved
same,symptom of atopic dermatitis (naked-eye observation),"[1]; BABL/c mice, 1% hirsutenone by injection, vs PBS negative control",much more relieved
same,symptom of atopic dermatitis (naked-eye observation),"[1]; BABL/c mice, 1% hirsutenone ointment applied to skin, vs composition without active ingredient",much more alleviated
same,symptom of atopic dermatitis (naked-eye observation),"[1]; NC/Nga mice, 0.1% hirsutenone by injection, 4 weeks, vs PBS negative control",much more improved
same,symptom of atopic dermatitis (naked-eye observation),"[1]; NC/Nga mice, 1% hirsutenone by injection, 4 weeks, vs PBS negative control",much more improved
same,symptom of atopic dermatitis (naked-eye observation),"[1]; NC/Nga mice, 1% hirsutenone ointment applied to skin, 4 weeks, vs composition without active ingredient",much more remarkably improved
same,number of eosinophil in blood,eosinophil,more severely reduced
same,IgE expression level in blood,IgE,remarkably lower
same,IL-4 expression level,IL-4,much lower
same,IL-5 expression level,IL-5,much lower
same,IL-13 expression level,IL-13,much lower
same,COX-2 expression level (real-time PCR),COX-2 [2],significantly decreased
same,iNOS expression level (real-time PCR),iNOS [3],significantly decreased
same,COX-2 expression level (western blotting),COX-2 [4],reduced
same,iNOS expression level (western blotting),iNOS [5],reduced
